Assay results reported in PubChem BioAssay (NCI).
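Exposure lasted 48 hours, with cells grown in 96-well plates and compounds tested at five concentrations. TGI marks complete inhibition of growth.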

Assays:
Assay in all cases: NCI-60 cell line screen, 48 h
786-0 renal = test system: 786-0 renal
A498 renal = test system: A498 renal
A549 NSCLC = test system: A549 NSCLC
ACHN renal = test system: ACHN renal
BT-549 breast = test system: BT-549 breast
CAKI-1 renal = test system: CAKI-1 renal
CCRF-CEM leukemia = test system: CCRF-CEM leukemia
COLO 205 colon = test system: COLO 205 colon
DLD-1 colon = test system: DLD-1 colon
DMS 114 small cell lung = test system: DMS 114 small cell lung
DMS 273 small cell lung = test system: DMS 273 small cell lung
DU-145 prostate = test system: DU-145 prostate
EKVX NSCLC = test system: EKVX NSCLC
HCC-2998 colon = test system: HCC-2998 colon
HCT-116 colon = test system: HCT-116 colon
HCT-15 colon = test system: HCT-15 colon
HL-60(TB) leukemia = test system: HL-60(TB) leukemia
HOP-18 NSCLC = test system: HOP-18 NSCLC
HOP-62 NSCLC = test system: HOP-62 NSCLC
HOP-92 NSCLC = test system: HOP-92 NSCLC
HS 578T breast = test system: HS 578T breast
HT29 colon = test system: HT29 colon
IGROV1 ovarian = test system: IGROV1 ovarian
K-562 leukemia = test system: K-562 leukemia
KM12 colon = test system: KM12 colon
KM20L2 colon = test system: KM20L2 colon
LOX IMVI melanoma = test system: LOX IMVI melanoma
LXFL 529 NSCLC = test system: LXFL 529 NSCLC
M14 melanoma = test system: M14 melanoma
M19-MEL melanoma = test system: M19-MEL melanoma
MALME-3M melanoma = test system: MALME-3M melanoma
MCF7 breast = test system: MCF7 breast
MDA-MB-231 breast = test system: MDA-MB-231 breast
MDA-MB-435 = test system: MDA-MB-435
MDA-N = test system: MDA-N
MOLT-4 leukemia = test system: MOLT-4 leukemia
NCI-H226 lung = test system: NCI-H226 lung
NCI-H23 lung = test system: NCI-H23 lung
NCI-H460 lung = test system: NCI-H460 lung
NCI-H522 lung = test system: NCI-H522 lung
OVCAR-3 ovarian = test system: OVCAR-3 ovarian
OVCAR-4 ovarian = test system: OVCAR-4 ovarian
OVCAR-5 ovarian = test system: OVCAR-5 ovarian
OVCAR-8 ovarian = test system: OVCAR-8 ovarian
PC-3 prostate = test system: PC-3 prostate
RPMI-8226 leukemia = test system: RPMI-8226 leukemia
RXF 393 renal = test system: RXF 393 renal
SF-268 CNS = test system: SF-268 CNS
SF-295 CNS = test system: SF-295 CNS
SF-539 CNS = test system: SF-539 CNS
SK-MEL-2 melanoma = test system: SK-MEL-2 melanoma
SK-MEL-28 melanoma = test system: SK-MEL-28 melanoma
SK-MEL-5 melanoma = test system: SK-MEL-5 melanoma
SK-OV-3 ovarian = test system: SK-OV-3 ovarian
SN12C renal = test system: SN12C renal
SNB-19 CNS = test system: SNB-19 CNS
SNB-75 CNS = test system: SNB-75 CNS
SNB-78 CNS = test system: SNB-78 CNS
SR leukemia = test system: SR leukemia
SW-620 colon = test system: SW-620 colon
T-47D breast = test system: T-47D breast
TK-10 renal = test system: TK-10 renal
U251 CNS = test system: U251 CNS
UACC-257 melanoma = test system: UACC-257 melanoma
UACC-62 melanoma = test system: UACC-62 melanoma
UO-31 renal = test system: UO-31 renal
XF 498 CNS = test system: XF 498 CNS
RXF-631 renal = test system: RXF-631 renal

Measured: TGI

CN(C)CCSC(=Nc1ccccc1)N1C=COC=C1
95.5 µM: PC-3 prostate
34 µM: NCI-H522 lung | SK-MEL-5 melanoma
90.1 µM: SNB-78 CNS
33.9 µM: MCF7 breast
> 73.6 µM: NCI-H23 lung
> 89 µM: SF-539 CNS
38.9 µM: 786-0 renal
43.5 µM: SW-620 colon
72.8 µM: RXF 393 renal
32.1 µM: SK-MEL-2 melanoma
> 81.8 µM: MALME-3M melanoma | OVCAR-3 ovarian
35.7 µM: DMS 273 small cell lung
27.9 µM: DMS 114 small cell lung
45.4 µM: MDA-N
45 µM: HCT-116 colon
31.8 µM: LOX IMVI melanoma
64.6 µM: SN12C renal
33.4 µM: IGROV1 ovarian
> 62 µM: OVCAR-4 ovarian
> 75.6 µM: NCI-H226 lung
85.3 µM: XF 498 CNS
33.8 µM: UACC-257 melanoma
> 72.2 µM: COLO 205 colon
32.4 µM: DLD-1 colon
30.9 µM: UACC-62 melanoma
32.5 µM: M19-MEL melanoma
42.5 µM: SF-268 CNS
47.4 µM: HCT-15 colon
36.2 µM: M14 melanoma
73.2 µM: HOP-92 NSCLC
30.6 µM: LXFL 529 NSCLC
50.5 µM: HCC-2998 colon
74.4 µM: T-47D breast
34.8 µM: MDA-MB-435
41.1 µM: MDA-MB-231 breast
40.4 µM: SK-MEL-28 melanoma
> 63.3 µM: OVCAR-8 ovarian
not listed: RXF-631 renal
> 100 µM: all other assays above

CNc1nnnn1C1OC(CO)C(O)C1O (stereo not given)
83.4 µM: XF 498 CNS
not listed: BT-549 breast | DU-145 prostate | HL-60(TB) leukemia | HOP-18 NSCLC | HOP-92 NSCLC | HS 578T breast | MCF7 breast | MDA-MB-231 breast | MDA-MB-435 | MDA-N | NCI-H23 lung | OVCAR-4 ovarian | PC-3 prostate | SK-MEL-28 melanoma | SNB-19 CNS | SR leukemia | T-47D breast
> 100 µM: all other assays above

O=C(Nc1ccc(Cl)c(Cl)c1)C(=O)Nn1c(=S)[nH]c2ccccc2c1=O
not listed: BT-549 breast | DU-145 prostate | HS 578T breast | MCF7 breast | MDA-MB-231 breast | MDA-MB-435 | MDA-N | OVCAR-3 ovarian | PC-3 prostate | T-47D breast | RXF-631 renal
> 100 µM: all other assays above
